8 compounds from ChEMBL document CHEMBL1149515, “Small molecule inhibitors of IgE synthesis” (Bioorg Med Chem Lett, 2006) can be followed below.

The term IC50 denotes the concentration needed to halve the response being measured. Read a high IC50 as weaker potency. As a reminder, the logD is the decadic logarithm of the distribution of all forms, ionised or not, between an organic phase and buffer at a given pH. Low readings indicate a more hydrophilic compound, high ones a more lipophilic compound. For orientation: half-life means the time needed for the level to fall by half in the phase considered.

Data set [1] concerns PBL. The experiment in a line: Inhibition of IL4-induced IgE synthesis in human peripheral blood lymphocytes. Type of data set: functional, cell-based.
Data set [2] has as its system Salmonella typhi. The experiment in a line: Mutagenic activity against […] by Ames assay. Type of data set: functional, organism-based. The note with it: Salmonella enterica subsp. enterica […]. On the technique in general: In the Ames test, an excess of revertant colonies over the control signals mutagenicity.
Data set [3] in a line: Lipophilicity, LogD of the compound. The note with it: octanol/water. It is filed as physicochemical.
The nature of data set [4]: Stability in human liver microsome at 1uM. The conditions noted are these: liver microsomes. Type of data set: ADME. (In general: Microsomes from liver hold many membrane-bound enzymes, among them those of drug oxidation.)
The test system of data set [5] is CYP1A1. The experiment in a line: Half life assessed as CYP1A1 mediated metabolism at 1 uM. It is filed as ADME.
Data set [6] relates to CYP1A2. The experiment in a line: Half life assessed as CYP1A2 mediated metabolism at 1 uM. It is filed as ADME.

The source made the active and inactive calls.

`CC(C)(C)NC(=O)c1cn2ccnc2c(N2CCN(c3ncccn3)CC2)n1`: 39 nM corresponded to half-maximal inhibition in data set [1] (IC50). For the same compound, the outcome in data set [2] was inactive. The compound also registered a logD in data set [3] of 3.7. The half-life at 1 µM stood at 3 min in data set [4] and 13 min in data set [5].

`c1cn2ccnc2c(-c2ccc(N3CCCC3)nc2)n1` displayed a concentration for half-maximal inhibition (IC50) in data set [1] of 55 nM. Moreover, the logD in data set [3] came out at 2.5. Further, the half-life at 1 µM was 14 min in data set [4], less than 1 min in data set [5] and less than 1 min in data set [6].

In the case of `O=C(NC1CCNC1)c1cn2ccnc2c(N2CCN(c3ccccn3)CC2)n1` (stereo not drawn), the IC50 in data set [1] amounted to 118 nM. For the same compound, the half-life at 1 µM in data set [4] and in data set [6] was greater than 120 min in each case.

As for `O=C(CCc1cnc2c(N3CCN(c4ncccn4)CC3)nccn12)N1CCOCC1`, the IC50 in data set [1] was greater than 10000 nM. Besides, the half-life at 1 µM in data set [5] and in data set [6] was greater than 120 min throughout.

With `CN1CCC(NC(=O)c2cn3ccnc3c(N3CCN(c4ccccn4)CC3)n2)CC1`, the IC50 in data set [1] is 37 nM. The half-life at 1 µM in data set [4] is greater than 120 min; in data set [5], 45 min; in data set [6], 95 min.

As to `c1cnc(N2CCN(c3nccn4ccnc34)CC2)nc1`, the midpoint of inhibition in data set [1], the IC50, lay at 18 nM. Besides, the outcome in data set [2] was Active. In data set [3], this compound returned a logD of 2. For the same compound, the half-life at 1 µM is 45 min in data set [4], less than 2 min in data set [5] and 2 min in data set [6].

`CCN1CCC(NC(=O)c2nc(N3CCN(c4ncccn4)CC3)c3nccn3c2C)CC1` came in with an IC50 in data set [1] of 49 nM. The same compound displayed a logD in data set [3] of 1.2. Besides, the half-life at 1 µM in data set [4] and in data set [5] was greater than 120 min throughout.

`c1cn2ccnc2c(N2CCN(C3CCCC3)CC2)n1` yielded an IC50 in data set [1] greater than 10000 nM. The half-life at 1 µM in data set [4] and in data set [6] was greater than 120 min throughout.
